Assay results published in PMC12396409, “Screening and hit evaluation of a microbial metabolite library against the pathogenic Plasmodium falciparum and Toxoplasma gondii parasites” (International Journal for Parasitology: Drugs and Drug …, 2025).
Like-named read-outs stand apart in the source and are kept apart here.

How the values were obtained:
[1] = system: P. falciparum 3D7 parasites; test: P. falciparum growth inhibition assay, 2-cycle (120 h treatment), delayed-death screen and dose-response; assay type: cell-based, Plasmodium falciparum; details: for activity at 2 µg/mL: Plasmodium falciparum, 3D7
[2] = system: P. falciparum 3D7 parasites; test: P. falciparum growth inhibition assay, 1-cycle (72 h treatment), SYBR DNA staining (library screen at 2 μg/mL and dose-response); assay type: cell-based, Plasmodium falciparum; details: for activity at 2 µg/mL: Plasmodium falciparum, 3D7
[3] = system: T. gondii RH strain (RH-Tub-eYFP) tachyzoites; test: microbe, parasite or virus in culture; assay type: cell-based, Toxoplasma gondii; details: 72 h, 72 h; for percent parasite growth at 2 µg/mL: Toxoplasma gondii
[4] = library screen at 2 μg/mL, 120 h, % growth, replicate 1
[5] = library screen at 2 μg/mL, 120 h, % growth, replicate 2
[6] = library screen at 2 μg/mL, 72 h, % growth, replicate 1
[7] = library screen at 2 μg/mL, 72 h, % growth, replicate 2
[8] = library screen at 2 μg/mL, % growth, replicate 1
[9] = library screen at 2 μg/mL, % growth, replicate 2
[10] = P. falciparum 3D7, 120 h, parasite screen at 2 μg/mL, % growth, replicate 1
[11] = P. falciparum 3D7, 120 h, parasite screen at 2 μg/mL, % growth, replicate 2
[12] = P. falciparum 3D7, 72 h, parasite screen at 2 μg/mL, % growth, replicate 1
[13] = P. falciparum 3D7, 72 h, parasite screen at 2 μg/mL, % growth, replicate 2
[14] = T. gondii, parasite screen at 2 μg/mL, % growth, replicate 1
[15] = T. gondii, parasite screen at 2 μg/mL, % growth, replicate 2

O=C(O)[C@H]1/C(=C/CO)O[C@@H]2CC(=O)N21 [Clavulanate potassium]
activity at 2 µg/mL ([1]; P. falciparum, 120 h, screen at 2 μg/mL, replicate 1, read-out: Pf_120h_%Growth_Rep1): 88.4% | activity at 2 µg/mL ([1]; P. falciparum, 120 h, screen at 2 μg/mL, replicate 2, read-out: Pf_120h_%Growth_Rep2): 86.6% | activity at 2 µg/mL ([2]; P. falciparum, 72 h, screen at 2 μg/mL, replicate 1, read-out: Pf_72h_%Growth_Rep1): 85.1% | activity at 2 µg/mL ([2]; P. falciparum, 72 h, screen at 2 μg/mL, replicate 2, read-out: Pf_72h_%Growth_Rep2): 88.1% | percent parasite growth at 2 µg/mL ([3]; T. gondii, screen at 2 μg/mL, replicate 1, read-out: Tg_72h_%Growth_Rep1): 102% | percent parasite growth at 2 µg/mL ([3]; T. gondii, screen at 2 μg/mL, replicate 2, read-out: Tg_72h_%Growth_Rep2): 102%

C/C=C/[C@@H]1C=C[C@@H]2C[C@H](C)CC[C@H]2[C@]1(C)/C(O)=C1/C(=O)[C@@H](CO)N(C)C1=O [Epiequisetin]
Pf_120h_%Growth_Rep1 [1, 4]: 86.15% | Pf_120h_%Growth_Rep2 [1, 5]: 82.07% | Pf_72h_%Growth_Rep1 [2, 6]: 86.43% | Pf_72h_%Growth_Rep2 [2, 7]: 84.23% | Tg_72h_%Growth_Rep1 [3, 8]: 129.84% | Tg_72h_%Growth_Rep2 [3, 9]: 98.00%

Cc1cc(O)cc(O)c1C(=O)O [BIA-O1657]
Pf_120h_%Growth_Rep1 [1, 10]: 95.39% | Pf_120h_%Growth_Rep2 [1, 11]: 131.31% | Pf_72h_%Growth_Rep1 [2, 12]: 83.41% | Pf_72h_%Growth_Rep2 [2, 13]: 79.75% | Tg_72h_%Growth_Rep1 [3, 14]: 114.94% | Tg_72h_%Growth_Rep2 [3, 15]: 95.01%

Cc1c2c(c(O)c3c(O)ccc(Cl)c13)C(=O)C1(O)C(O)=C(C(N)=O)C(=O)C(N(C)C)C1C2.Cl (stereo not drawn)
Pf_120h_%Growth_Rep1 [1, 4]: 95.25% | Pf_120h_%Growth_Rep2 [1, 5]: 115.61% | Pf_72h_%Growth_Rep1 [2, 6]: 85.99% | Pf_72h_%Growth_Rep2 [2, 7]: 99.34% | Tg_72h_%Growth_Rep1 [3, 8]: 119.39% | Tg_72h_%Growth_Rep2 [3, 9]: 96.29%

O=C1N[C@@H](C[C@@]2(O)c3ccccc3N3C(=O)C[C@@H](c4ccccc4)N[C@H]32)C(=O)N[C@H]1Cc1ccccc1 [Citreoindole]
2) Growth (%) at 120 h ([1]; P. falciparum, 2 μg/mL, 120 h): 9.52% | Pf_120h_%Growth_Rep1 ([1]; P. falciparum, 120 h, screen at 2 μg/mL, replicate 1): 10.68% | Pf_120h_%Growth_Rep2 ([1]; P. falciparum, 120 h, screen at 2 μg/mL, replicate 2): 8.36% | 3) Fold change (72 h/120 h) ([1]; P. falciparum, growth at 72 h / growth at 120 h, 2 μg/mL): 2.9 | 1) Growth (%) at 72 h ([2]; P. falciparum, 2 μg/mL, 72 h): 27.30% | Pf_72h_%Growth_Rep1 ([2]; P. falciparum, 72 h, screen at 2 μg/mL, replicate 1): 25.03% | Pf_72h_%Growth_Rep2 ([2]; P. falciparum, 72 h, screen at 2 μg/mL, replicate 2): 29.57% | Tg_72h_%Growth_Rep1 ([3]; T. gondii, screen at 2 μg/mL, replicate 1): 97.80% | Tg_72h_%Growth_Rep2 ([3]; T. gondii, screen at 2 μg/mL, replicate 2): 86.03%

COC1=C(OC)C(=O)[C@@H](C)[C@H](C)C1=O [BIA-G1680]
Pf_120h_%Growth_Rep1 ([1]; P. falciparum 3D7, 120 h, library screen at 2 μg/mL, % growth, replicate 1): 27.26% | Pf_120h_%Growth_Rep2 ([1]; P. falciparum 3D7, 120 h, library screen at 2 μg/mL, % growth, replicate 2): 12.29% | Pf_72h_%Growth_Rep1 ([2]; P. falciparum 3D7, 72 h, library screen at 2 μg/mL, % growth, replicate 1): 4.48% | Pf_72h_%Growth_Rep2 ([2]; P. falciparum 3D7, 72 h, library screen at 2 μg/mL, % growth, replicate 2): 3.13% | Tg_72h_%Growth_Rep1 ([3]; T. gondii RH, library screen at 2 μg/mL, % growth, replicate 1): 146.51% | Tg_72h_%Growth_Rep2 ([3]; T. gondii RH, library screen at 2 μg/mL, % growth, replicate 2): 97.35%

CC(C)=CCc1cc(C=C2OC(=O)C(c3cc(CC=C(C)C)c(O)cc3O)=C2O)ccc1O [Aspulvinone O]
Pf_120h_%Growth_Rep1 [1, 4]: 144.60% | Pf_120h_%Growth_Rep2 [1, 5]: 98.61% | Pf_72h_%Growth_Rep1 [2, 6]: 82.88% | Pf_72h_%Growth_Rep2 [2, 7]: 86.74% | Tg_72h_%Growth_Rep1 [3, 8]: 90.15% | Tg_72h_%Growth_Rep2 [3, 9]: 99.19%

COc1ccc2c3c([nH]c2c1)[C@H](C=C(C)C)N1C(=O)[C@@H]2CCCN2C(=O)[C@@H]1C3 [Fumitremorgin C]
Pf_120h_%Growth_Rep1 [1, 4]: 98.00% | Pf_120h_%Growth_Rep2 [1, 5]: 92.77% | Pf_72h_%Growth_Rep1 [2, 6]: 84.21% | Pf_72h_%Growth_Rep2 [2, 7]: 83.65% | Tg_72h_%Growth_Rep1 [3, 8]: 152.38% | Tg_72h_%Growth_Rep2 [3, 9]: 98.57%

CCC1OC2(CCC1C)CC1CC(CC=C(C)CC(C)C=CC=C3COC4C(O)C(C)=CC(C(=O)O1)C34O)O2 (stereo not drawn) [BIA-M1052]
Pf_120h_%Growth_Rep1 [1, 10]: 32.48% | Pf_120h_%Growth_Rep2 [1, 11]: 50.00% | Pf_72h_%Growth_Rep1 [2, 12]: 59.66% | Pf_72h_%Growth_Rep2 [2, 13]: 59.04% | Tg_72h_%Growth_Rep1 [3, 14]: 117.80% | Tg_72h_%Growth_Rep2 [3, 15]: 80.70%
